Earlier results on one molecule are cited in patent US7169819B2, “Pharmaceutical compositions of fenretinide having increased bioavailability and methods of using the same” (Childrens Hospital Los Angeles, priority 2000, dated 2007).

Each structure is given as a SMILES string.

The conditions of data set [1]: background statement.
For data set [2] the following is noted: rodents.

Take `CC1=C(/C=C/C(C)=C/C=C/C(C)=C/C(=O)Nc2ccc(O)cc2)C(C)(C)CCC1` [Fenretinide, all-trans-N-(4-hydroxyphenyl)retinamide]: the “Solubility in aqueous solution” value in data set [1] is given as “minimally soluble”. Further, the half-life (commonly the time in which the quantity being followed falls by half) in data set [2] was 12 to 16 h.
